Data taken from PMC3139667, “A Screen against Leishmania Intracellular Amastigotes: Comparison to a Promastigote Screen and Identification of a Host Cell-Specific Hit” (PLoS Neglected Tropical Diseases, 2011).
Where a name gives a salt, the structure may show the parent alone. Read-outs that look alike come from different tables or passages of the source.

Tests used:
[1] = test system: L. donovani promastigotes; assay: Promastigote high-throughput ATP-bioluminescence assay; format: cell-based, Leishmania donovani; conditions: 72 h at 27°C, CellTiter-Glo, read-out: GI50 Promastigote
Description: L. donovani promastigotes from an exponentially growing culture were diluted to 10^6/ml in RPMI containing 10% FBS and 10% BHT. The diluted culture (99 µl/well) was dispensed in sterile 96-well flat white opaque assay plates (Greiner Bio-One) using a WellMate multichannel dispenser (Matrix). 1 µl of 1 mM test compound dissolved in DMSO was added to the plates for a final concentration of 10 µM compound and 1% DMSO. Amphotericin B was added as a positive control (final concentration 2 µM, 1% DMSO) and as a negative control, 1 µl DMSO was added (1% final concentration). Compounds and controls were added to the assay plate with the robotic dispenser Biomek FXp liquid handler (Beckman Coulter). Promastigotes were incubated with the compounds for 72 h at 27°C. The parasites were then lysed by adding 50 µl of CellTiter-Glo (Promega) and placed on an orbital shaker for 5 min at room temperature. After lysis, the resulting ATP-bioluminescence was measured using the Analyst HT plate reader (Molecular Devices). Percentage inhibition of parasite growth was calculated for each well as [1-(RLUx-RLU^+)/(RLU^--RLU^+)]*100 where RLUx, RLU^+ and RLU^- are respectively the Relative Light Units for each well, positive (amphotericin B) and negative (DMSO) controls. A screening window coefficient, denoted Z' factor, was used to evaluate the performance of the assay. The Z' factor, calculated as 1-(3σc++3σc−)/(µc+−µc−) where σc+, σc−, µc+ and µc− are respectively the standard deviation and mean values of positive and negative controls, is reflective of the assay signal dynamic range and the data variation associated with signal measurement. […] GI50 curve fitting was carried out using GraphPad Prism 4 Software (GraphPad Software Inc., San Diego, CA).

[2] = test system: L. donovani intracellular amastigotes; assay: Intracellular amastigote high-throughput image-based assay in infected THP-1 macrophages; format: cell-based, Leishmania donovani; conditions: for GI50: L. donovani in THP-1, 72 h, parasites per host cell, read-out: GI50 Intracellular amastigote
Description: (§1) Sterile, black, 96-well, clear bottom plates (Greiner Bio-One) were seeded with exponentially growing THP-1 (5×10^5cells/ml). THP-1 were treated with 0.1 µM phorbol myristate acetate (PMA, Sigma) at 37°C for 48 h to achieve differentiation into adherent, non-dividing macrophages. Maturation of THP-1 cells towards monocyte-macrophage like cells is essential to avoid parasitized cells being overgrown by replicating cells. After activation by PMA, cells were washed and incubated with complete RPMI medium containing stationary phase L. donovani promastigotes at a macrophage/promastigote ratio of 1/15. After 4 h incubation at 37°C, non-internalized promastigotes were removed by 2–3 successive washes with RPMI containing 5% FBS and 5% horse serum. Test compounds (10 µM), positive control (2 µM amphotericin B) or negative control (1% DMSO) were then added to the cultures using a Biomek FXp liquid handler (Beckman Coulter). Cultures were incubated at 37°C for 72 h. Cells were then washed with phosphate-buffered saline (PBS), fixed for 30 minutes with 4% formaldehyde, rinsed again with PBS, stained for 2 h with 4′,6′-diamidino-2-phenylindole (DAPI 300 nM) and finally washed with PBS. […] Images were acquired with an INCell Analyzer 1000 automated epi-fluorescent microscope (G.E. Healthcare). The excitation and emission filters used to detect DAPI were 350/50 nm and 460/40 nm respectively. Eight image fields were acquired per well with a 20X objective. The proprietary INCell Developer Toolbox 1.7 software was used for image analysis. Segmentation parameters were set to identify host nuclei with a minimum area of 250 µm^2 and parasite kinetoplast with an average area of 1 µm^2. The intensity of parasite nucleus was too low to be detected with a 20X objective. A border, representing the boundary of the cell, was drawn around the nucleus (total area between 700 and 2000 µm^2). Only parasites found within this area were included in the calculation to eliminate extracellular parasites. False positive parasite detection in the nucleus was also excluded from the calculation. Host cell nuclei and parasite kinetoplasts were counted and the ratio of parasites DNA to host nuclei was selected as the measurement output. Percentage inhibition of parasite growth was calculated as [1-(P/hcx-P/hc^+)/(P/hc^−-P/hc^+)]*100 where P/hcx, P/hc^+ and P/hc^− are parasite per host cell ratio for every well, positive control (amphotericin B) and negative control (DMSO) respectively. Calculation of Z' factor and GI50 curve fitting were carried out as described above.

THP-1 = assay: Host cell toxicity: THP-1 host nuclei counts in the image-based assay; conditions: for GI50: read-out: GI50 THP-1; for Selectivity: ratio between parasite GI50 and THP-1 GI50
Description: as §1

[3] = test system: L. donovani axenic amastigotes; assay: Dose response study against axenic amastigotes (CellTiter-Glo); format: cell-based, Leishmania donovani; conditions: 72 h at 37°C, CellTiter-Glo, read-out: GI50 Axenic amastigote
Description: L. donovani axenic amastigotes (5×10^5 cells/ml in axenic amastigote media) were dispensed in sterile 96-well flat white opaque assay plates (Greiner Bio-One) using a WellMate multichannel dispenser (Matrix). […] 1% DMSO and amphotericin B (2 µM, 1% DMSO final concentration) were added as negative and positive controls respectively. Axenic amastigotes were incubated with the compounds for 72 h at 37°C with 5% CO2. Parasite viability was then measured using CellTiter-Glo as described above.

[4] = ratio between promastigote GI50 and intracellular amastigote GI50, >2 more active against intracellular amastigote, <0.4 more active against promastigotes
[5] = PMA-differentiated infected THP-1, 72 h, host nuclei count

SMILES	GI50 ([1]; Leishmania donovani) [µM]	Specificity [2, 4]	GI50 (THP-1; Homo sapiens, THP-1, 72 h) [µM]	Selectivity (THP-1)	GI50 ([3]; Leishmania donovani) [µM]	GI50 [1] [µM]	GI50 (THP-1; [5]) [µM]	GI50 [3] [µM]	further results
N=C(N)c1ccc(OCCCCCOc2ccc(C(=N)N)cc2)cc1 [Pentamidine Isethionate]	1.69	0.17	> 50	29.49	1.64	–	–	–	Primary screen against intracellular amastigotes, hit selection ([2]; 10 µM, duplicates, hit = 60% parasite growth inhibition and not more than 20% reduction in THP-1 numbers): active; GI50 ([2]; Leishmania donovani, THP-1, 72 h): 9.55 µM
COc1cc2nc(N3CCN(C(=O)c4ccco4)CC3)nc(N)c2cc1OC.Cl [Prazocin Hydrochloride]	–	–	–	3.46	–	16.7	23.3	> 50	Specificity [2]: 2.48; GI50 [2]: 6.73 µM
CCCCCCCCCCCCCCCC[n+]1ccccc1 [Cetylpyridinium chloride]	–	–	–	–	–	–	–	–	Specificity [2]: 8.05
CC(=O)OC[C@H]1O[C@@H]([S-])[C@H](OC(C)=O)[C@@H](OC(C)=O)[C@@H]1OC(C)=O.CCP(CC)CC.[Au+] [Auranofin]	–	0.51	–	1.88	–	11.1	20.9	> 50	GI50 [2]: 21.8 µM
CC(C)(C)c1ccc(C(O)CCCN2CCC(C(O)(c3ccccc3)c3ccccc3)CC2)cc1 (stereo not shown) [Terfenadine]	11.9	–	–	–	0.61	–	–	–	–
O=C(Nc1ccc(Cl)c(Cl)c1)c1cc(Cl)cc(Cl)c1O [3,3′,4′,5-tetrachlorosalicylanilide]	1.45	–	0.32	0.22	1.38	–	–	–	–
CC(C)(C)CC(C)(C)c1ccc(OCCOCC[N+](C)(C)Cc2ccccc2)cc1.[Cl-] [Benzetonium chloride]	–	1.13	–	–	–	11.3	–	10.7	GI50 [2]: 10 µM
Clc1ccc(CO/N=C(\Cn2ccnc2)c2ccc(Cl)cc2Cl)c(Cl)c1 [Oxiconazole]	–	0.40	–	–	–	–	–	–	–
C[C@@H]1CC[C@@]2(OC1)O[C@H]1[C@@H](O)[C@H]3[C@@H]4CC[C@H]5C[C@@H](O[C@@H]6O[C@H](CO)[C@H](O[C@@H]7O[C@H](CO)[C@@H](O)[C@H](O[C@@H]8OC[C@@H](O)[C@H](O)[C@H]8O)[C@H]7O[C@@H]7O[C@H](CO)[C@H](O)[C@H](O[C@@H]8O[C@H](CO)[C@@H](O)[C@H](O)[C@H]8O)[C@H]7O)[C@H](O)[C@H]6O)[C@H](O)C[C@]5(C)[C@H]4CC[C@]3(C)[C@H]1[C@@H]2C [Digitonin]	4.38	–	13.5	3.075	13.8	–	–	–	–
CN(C)C(=O)C(CCN1CCC(O)(c2ccc(Cl)cc2)CC1)(c1ccccc1)c1ccccc1 [Loperamide Hydrochloride]	17.3	–	–	–	> 50	–	–	–	–
C[CH2][Hg][S]c1ccccc1C(=O)[O-].[Na+] [Thimerosal]	–	–	–	26.18	–	0.49	12.8	1.5	–
COc1c(Cl)cc2c(c1OC)N(C)[C@@H]1N3C(=O)[C@@]4(C)SS[C@@]3(C(=O)N4C)[C@H](O)[C@]21O [Sporidesmin A]	–	–	–	0.02	–	1.18	0.02	1.66	–
CC(=O)[C@]1(O)Cc2c(O)c3c(c(O)c2[C@@H](O[C@H]2C[C@H](N)[C@H](O)[C@H](C)O2)C1)C(=O)c1ccccc1C3=O [Idarubicin]	4.65	–	1.89	0.40	1.78	–	–	–	–
